Read-outs that look alike come from different tables or passages of the source.
What was measured:
[1] = Solubility under the conditions of the assay; settings: Ellman's assay conditions
Description: (§1) In this study, carboxamides with different triterpenoic backbones (ursolic, oleanolic, maslinic, betulinic, and platanic acids), and various amine residues (Scheme 1), were investigated.
(§2) 3.1 Preparation of the solutions
(§3) Preparation of 50 mM Tris-HCl buffer solutions: Tris(hydroxymethyl)-aminomethane (606 mg) was dissolved in bidestilled water (100 mL) and adjusted with HCl to a pH of 8.0 ± 0.1. Buffers were freshly prepared and stored in the refrigerator. AChE solution 2.005 U/mL: the enzyme (271 U/mg, 0.037 mg) was dissolved in freshly prepared buffer pH 8.0 (5 mL) containing NaN3 (0.98 mg). BChE solution 2.040 U/mL: the enzyme (7.54 U/mg, 1.353 mg) was dissolved in freshly prepared buffer pH 8.0 (5 mL) containing NaN3 (0.98 mg). DTNB solution 3 mM: DTNB (23.8 mg) was dissolved in freshly prepared buffer pH 8.0 (20 mL) containing NaCl (116.8 mg) and MgCl2 (38.0 mg). ATChI solution 15 mM:
(§4) ATChI (43.4 mg) was dissolved in bidestilled water (10 mL). All solutions were stored in Eppendorf caps in the refrigerator or in the freezer, if necessary. The pure compounds were […]
(§5) dissolved in bidistilled water. The final concentrations for the enzymatic assay were obtained by diluting the stock solution with bidistilled water.
(§6) A mixture of the DTNB solution (125 µL), enzyme solution (25 µL) and compounds solutions (25 µL, 3 different concentrations and once blank water) was prepared and incubated at 30 °C for 20 min. The substrate (25 µL, 4 different concentrations) was added to start the enzymatic reaction. The absorbance data (l = 415 nm) was recorded under a controlled temperature of 30 °C for 30 min at 1 min intervals. The substrate concentrations in the test were as follows: […]
(§7) determined as the quotient of the slopes (compound divided by blank) of the linear ranges.
(§8) The used substrate concentration was 0.625 mM. The absorbance data was recorded under a controlled temperature of 30 °C for 10 min.

[2] = target: acetylcholinesterase (AChE, electric eel) (Electrophorus electricus, UniProt O42275)
Excerpt: as §1
(§9) A TECAN SpectraFluorPlus working in the kinetic mode and measuring the absorbance at λ = 415 nm was used for the enzymatic studies. Acetylcholinesterase (from Electrophorus electricus), 5,5′-dithiobis-(2-nitrobenzoic acid) (DTNB) and acetylthiocholine iodide were purchased from Sigma. Butyrylcholinesterase (from equine serum) was purchased from Fluka. Preparation of the solutions, assay procedure, as well as molecular modeling conditions can be found in the Supplementary Materials.
as §2, §3, §4, §5, §6, §7, §8

[3] = target: T1, butyrylcholinesterase (BChE, equine serum) (Equus caballus, UniProt P81908); test: Ellman's assay, butyrylcholinesterase inhibition; assay type: biochemical; settings: for Grade of inhibition in% BChE: mean ± SE; for selectivity F (percent inhibition for AChE divided by percent inhibition for BChE): towards BChE
T1 construct: Butyrylcholinesterase (from equine serum) was purchased from Fluka; purchased Fluka; host or cells: equine serum
Excerpt: as §1, §9, §2, §3, §4, §5, §6, §7, §8

[4] = BChE, equine serum, Ellman's assay
[5] = BChE, equine serum, Ellman's assay, read-out: Ki (competitive inhibition)
[6] = experimental Ki restated in docking Table 3, unit inferred, read-out: Ki

T1 sequence (P81908 whole entry): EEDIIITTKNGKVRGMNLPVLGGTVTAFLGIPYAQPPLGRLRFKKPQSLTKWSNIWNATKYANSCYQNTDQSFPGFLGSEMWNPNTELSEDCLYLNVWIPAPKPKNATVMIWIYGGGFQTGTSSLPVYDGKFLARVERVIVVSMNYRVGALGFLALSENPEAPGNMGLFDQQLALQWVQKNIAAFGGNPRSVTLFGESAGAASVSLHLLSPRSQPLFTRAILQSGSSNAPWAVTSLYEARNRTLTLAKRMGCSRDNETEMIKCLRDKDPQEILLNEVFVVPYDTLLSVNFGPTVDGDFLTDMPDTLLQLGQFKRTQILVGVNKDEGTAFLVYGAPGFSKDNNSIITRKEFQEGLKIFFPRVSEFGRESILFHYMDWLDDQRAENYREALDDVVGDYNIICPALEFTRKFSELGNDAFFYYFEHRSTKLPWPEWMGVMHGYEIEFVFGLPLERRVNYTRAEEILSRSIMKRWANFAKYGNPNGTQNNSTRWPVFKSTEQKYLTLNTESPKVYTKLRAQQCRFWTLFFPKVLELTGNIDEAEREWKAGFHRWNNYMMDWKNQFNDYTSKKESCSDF
Chain of acetylcholinesterase (AChE, electric eel) (O42275 24-633): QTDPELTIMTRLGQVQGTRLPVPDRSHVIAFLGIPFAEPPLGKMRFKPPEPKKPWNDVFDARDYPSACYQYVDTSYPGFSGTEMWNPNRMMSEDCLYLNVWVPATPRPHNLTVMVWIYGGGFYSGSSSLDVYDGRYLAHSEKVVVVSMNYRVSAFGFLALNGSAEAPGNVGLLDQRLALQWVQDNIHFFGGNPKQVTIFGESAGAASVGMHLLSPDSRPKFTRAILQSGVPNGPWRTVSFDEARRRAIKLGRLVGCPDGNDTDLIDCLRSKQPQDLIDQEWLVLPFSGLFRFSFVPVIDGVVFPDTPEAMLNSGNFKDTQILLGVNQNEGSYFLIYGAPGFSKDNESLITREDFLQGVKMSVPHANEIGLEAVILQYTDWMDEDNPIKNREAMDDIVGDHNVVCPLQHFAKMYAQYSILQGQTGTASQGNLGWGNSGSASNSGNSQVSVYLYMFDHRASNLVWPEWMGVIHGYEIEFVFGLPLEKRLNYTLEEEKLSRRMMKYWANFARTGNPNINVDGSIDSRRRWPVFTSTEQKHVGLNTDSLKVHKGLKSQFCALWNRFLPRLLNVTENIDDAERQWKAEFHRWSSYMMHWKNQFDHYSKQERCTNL

Row | SMILES | Grade of inhibition in% AChE ([2]; c = 10 µM, mean ± SE) | Type of Inhibition ([3]; BChE, equine serum) | Ki′ (uncompetitive inhibition) [3, 4] [µM] | Ki [3, 5] [µM] | Grade of inhibition in% BChE ([3]; c = 10 µM) [%] | Grade of inhibition in% AChE ([2]; c = 30 µM, mean ± SE) [%] | Grade of inhibition in% BChE ([3]; c = 30 µM) [%] | other results
1 | CC(=O)O[C@H]1CC[C@@]2(C)C(CC[C@]3(C)C2CC=C2C4[C@@H](C)[C@H](C)CC[C@]4(C(=O)NCCN4CCCCC4)CC[C@]23C)C1(C)C (stereo partly drawn) [Compound 41] |  |  |  |  |  |  |  | solubility under the conditions of the assay [1]: n.sol.
2 | C=C(C)C1CC[C@]2(C(=O)NCCN3CCCC3)CC[C@]3(C)C(CCC4[C@@]5(C)CC[C@H](OC(C)=O)C(C)(C)C5CC[C@]43C)C12 (stereo partly drawn) [Compound 34] | 44.15 ± 0.32% | mixed-type | > 5 | 0.39 ± 0.04 | 71.56 ± 0.54 |  |  | Ki [3, 6]: 0.39 µM
3 | CC(=O)O[C@H]1CC[C@]2(C)[C@H]3CC[C@@H]4[C@H]5[C@H](C(C)=O)CC[C@]5(C(=O)NCCN5CCCC5)CC[C@@]4(C)[C@]3(C)CC[C@H]2C1(C)C [Compound 35, (3β)-N-(2-pyrrolidin-1-ylethyl)-3-acetyloxy-20-oxo-30-norlupan-28-amide] |  | mixed-type | 2.38 ± 0.48 | 0.07 ± 0.01 |  | 19.97 ± 0.13 | 94.60 ± 0.02 | Ki [3, 6]: 0.07 µM; selectivity F (percent inhibition for AChE divided by percent inhibition for BChE) [3]: ≈ 0.21
4 | CC(=O)[C@@H]1CC[C@]2(C(=O)NCCN)CC[C@]3(C)[C@H](CC[C@@H]4[C@@]5(C)CC[C@H](O)C(C)(C)[C@@H]5CC[C@]43C)[C@@H]12 [Compound 20] | 37.09 ± 0.97% | mixed-type | > 110 | 8.37 ± 0.67 | 12.98 ± 0.35 |  |  | Type of Inhibition ([2]; AChE, electric eel): mixed-type; Ki' (uncompetitive inhibition) ([2]; AChE, electric eel, mean ± SE): 9.71 ± 0.03 µM; Ki ([2]; read-out: Ki (competitive inhibition), AChE, electric eel, mean ± SE): 7.18 ± 0.02 µM
5 | CC(=O)OC1CCC2(C)C(CCC3(C)C2CC=C2C4CC(C)(C)CCC4(C(=O)NCCN(C)C)CCC23C)C1(C)C (stereo not drawn) [Compound 22, (3β)-N-[2-(Dimethylamino)-ethyl]-3-acetyloxy-olean-12-en-28-amide] |  |  |  |  |  |  |  | solubility under the conditions of the assay [1]: n.sol.
6 | CC(=O)OC1CC2(C)C(CCC3(C)C2CC=C2C4CC(C)(C)CCC4(C(=O)NCCN(C)C)CCC23C)C(C)(C)C1OC(C)=O (stereo not drawn) [Compound 23, (2α,3β)-N-[2-(Dimethylamino)ethyl]-2,3-diacetyloxy-olean-12-en-28-amide] |  |  |  |  |  |  |  | solubility under the conditions of the assay [1]: n.sol.
7 | CC(=O)O[C@H]1CC[C@@]2(C)C(CC[C@]3(C)C2CC=C2C4[C@@H](C)[C@H](C)CC[C@]4(C(=O)NCCN4CCCC4)CC[C@]23C)C1(C)C (stereo partly drawn) [Compound 31] | 14.54 ± 0.36% | mixed-type | 6.00 ± 0.47 | 4.42 ± 0.34 | 50.49 ± 2.23 |  |  | Ki [3, 6]: 4.42 µM
8 | CC1(C)CC[C@]2(C(=O)NCCN3CCCCC3)CC[C@]3(C)C(=CC[C@@H]4[C@@]5(C)CC[C@H](O)C(C)(C)[C@@H]5CC[C@]43C)[C@@H]2C1 [Compound 47, (3β)-N-(2-Piperidin-1-ylethyl)-3-hydroxy-olean-12-en-28-amide] |  | mixed-type | 10.42 ± 1.36 | 1.57 ± 0.01 |  | 38.65 ± 0.29 | 74.89 ± 0.04 | 
9 | CC(=O)O[C@H]1CC[C@@]2(C)C(CC[C@]3(C)C2CC=C2C4[C@@H](C)[C@H](C)CC[C@]4(C(=O)NCCN(C)C)CC[C@]23C)C1(C)C (stereo partly drawn) [Compound 21] | 10.78 ± 0.12% | mixed-type | 143.36 ± 0.02 | 6.48 ± 0.1 | 36.50 ± 0.30 |  |  | 
10 | CC(=O)O[C@H]1CC[C@]2(C)[C@H]3CC[C@@H]4[C@H]5[C@H](C(C)=O)CC[C@]5(C(=O)NCCN(C)C)CC[C@@]4(C)[C@]3(C)CC[C@H]2C1(C)C [Compound 25] | no inhibition | mixed-type |  |  | 88.49 ± 0.58 |  |  | 
11 | C=C(C)C1CC[C@]2(C(=O)NCCN)CC[C@]3(C)C(CCC4[C@@]5(C)CC[C@H](O)C(C)(C)C5CC[C@]43C)C12 (stereo partly drawn) [Compound 19] | 62.95 ± 0.61% |  |  |  | 36.70 ± 5.34 |  |  | 
12 | C[C@@H]1CC[C@]2(C(=O)NCCN(C)C)CC[C@]3(C)C(=CCC4[C@@]5(C)CC[C@H](O)C(C)(C)C5CC[C@]43C)C2[C@H]1C (stereo partly drawn) [Compound 26] |  | mixed-type | 3.10 ± 0.30 | 1.11 ± 0.09 |  | 33.53 ± 0.44 | 77.74 ± 0.59 | 
13 | C=C(C)C1CC[C@]2(C(=O)NCCN3CCCC3)CC[C@]3(C)C(CCC4[C@@]5(C)CC[C@H](O)C(C)(C)C5CC[C@]43C)C12 (stereo partly drawn) [Compound 39] |  | mixed-type | > 9 | 3.24 ± 0.58 |  | 58.81 ± 0.80 | 60.48 ± 0.05 | 
14 | CC(=O)O[C@H]1CC[C@]2(C)[C@H]3CC=C4[C@@H]5CC(C)(C)CC[C@]5(C(=O)NCCN5CCCC5)CC[C@@]4(C)[C@]3(C)CC[C@H]2C1(C)C [Compound 32, (3β)-N-(2-Pyrrolidin-1-ylethyl)-3-acetyloxy-olean-12-en-28-amide] | 7.29 ± 0.50% | mixed-type | 29.88 ± 1.13 | 2.02 ± 0.56 | 65.73 ± 0.14 |  |  | selectivity F (percent inhibition for AChE divided by percent inhibition for BChE) [3]: 0.11
15 | C=C(C)C1CC[C@]2(C(=O)NCCN(C)C)CC[C@]3(C)C(CCC4[C@@]5(C)CC[C@H](OC(C)=O)C(C)(C)C5CC[C@]43C)C12 (stereo partly drawn) [Compound 24] | 13.10 ± 1.32% | mixed-type |  |  | 67.75 ± 0.69 |  |  | 
16 | CC(=O)[C@@H]1CC[C@]2(C(=O)NCCN3CCCCC3)CC[C@]3(C)[C@H](CC[C@@H]4[C@@]5(C)CC[C@H](O)C(C)(C)[C@@H]5CC[C@]43C)[C@@H]12 [Compound 50, (3β)-N-(2-Piperidin-1-ylethyl)-3-hydroxy-20-oxo-30-norlupan-28-amide] | 52.14 ± 1.55% | mixed-type | 3.09 ± 0.03 | 0.97 ± 0.04 | 88.37 ± 0.85 |  |  | 
17 | CC1(C)CCC2(C(=O)NCCN3CCCC3)CCC3(C)C(=CCC4C5(C)CC(O)C(O)C(C)(C)C5CCC43C)C2C1 (stereo not drawn) [Compound 38, (2α,3β)-N-(2-Pyrrolidin-1-ylethyl)-2,3-dihydroxy-olean-12-en-28-amide] |  | mixed-type | 14.15 ± 2.42 | 2.06 ± 0.03 |  | 23.33 ± 0.22 | 77.49 ± 0.10 | 
18 | C=C(C)C1CC[C@]2(C(=O)NCCN)CC[C@]3(C)C(CCC4[C@@]5(C)CC[C@H](OC(C)=O)C(C)(C)C5CC[C@]43C)C12 (stereo partly drawn) [Compound 14] | 56.17 ± 0.64% |  |  |  | 42.70 ± 1.33 |  |  | 
19 | C[C@@H]1CC[C@]2(C(=O)NCCN3CCCC3)CC[C@]3(C)C(=CCC4[C@@]5(C)CC[C@H](O)C(C)(C)C5CC[C@]43C)C2[C@H]1C (stereo partly drawn) [Compound 36] |  | mixed-type | 2.23 ± 0.12 | 0.47 ± 0.08 |  | 31.45 ± 0.60 | 85.66 ± 0.10 | 

— publication PMC6429507, “Triterpene-Based Carboxamides Act as Good Inhibitors of Butyrylcholinesterase” (Molecules, 2019)
